{
  "source": "paper PMC9026967",
  "about": "“Discovery of a Novel Inhibitor Structure of Mycobacterium tuberculosis Isocitrate Lyase” (Molecules, 2022)",
  "key": {"[1]": {"biological_target": "T1, M. tuberculosis isocitrate lyase (MtICL) (Mycobacterium tuberculosis, UniProt P9WKK7)", "T1 construct": "gene icl", "T1 sequence (P9WKK7 1-428)": "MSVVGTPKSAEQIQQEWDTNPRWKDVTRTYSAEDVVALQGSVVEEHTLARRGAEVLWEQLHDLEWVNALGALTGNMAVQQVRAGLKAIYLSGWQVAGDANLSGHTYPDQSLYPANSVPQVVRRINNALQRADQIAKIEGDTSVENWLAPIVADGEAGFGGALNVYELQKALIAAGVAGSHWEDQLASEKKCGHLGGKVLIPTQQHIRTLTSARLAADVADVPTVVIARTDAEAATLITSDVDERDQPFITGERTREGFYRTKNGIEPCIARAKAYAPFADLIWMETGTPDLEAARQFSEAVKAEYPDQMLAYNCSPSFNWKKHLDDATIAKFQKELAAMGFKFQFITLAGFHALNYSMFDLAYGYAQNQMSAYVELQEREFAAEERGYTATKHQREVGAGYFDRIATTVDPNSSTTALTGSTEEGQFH", "assay": "biochemical"}, "[2]": {"biological_target": "T1, M. tuberculosis isocitrate lyase (MtICL)", "assay": "biochemical", "remark": "listed apart in the source"}},
  "note": "Where two headings read alike, the source gives them in different places.",
  "data": [
    {"molecule": "O=c1ccc2ccc(O)c(O)c2o1", "note": "[MOL005118, Daphnetin]", "values": [
      {"measurement": "IC50", "setting": "[1]", "value": 24.4, "unit": "µM"}
    ]},
    {"molecule": "O=C(O)C(=O)CBr", "note": "[3-BP, 3-bromopyruvic acid]", "values": [
      {"measurement": "IC50", "setting": "[2]", "value": "63.6 ± 2.8", "unit": "µM"}
    ]},
    {"molecule": "C=C(CC(=O)O)C(=O)O", "note": "[IA, itaconic acid]", "values": [
      {"measurement": "IC50", "setting": "[2]", "value": "38.6 ± 0.8", "unit": "µM"}
    ]}
  ]
}
